Data on eight molecules can be found in publication doi:10.1101/2023.11.23.568446v1 (bioRxiv, 2023).

Bridge positions count the residues as written; N and C are the ends. Square brackets hold non-standard residues; d marks the D form. Peptide text beside a SMILES is read from it. * marks the point of attachment. X1 = CC[C@H](C)CCCCC(=O)*; Dab = NCC[C@H](N)C(=O)O

In test [1] the test system is A. baumannii biofilms. Conditions: at 128µM (64×MIC); ref Kim et al., 2018; cited from earlier work.
In test [2] the test system is A. baumannii isolates. As to the kind of experiment: Antibiotic resistance profile of isolates. Type of test: cell-based, Acinetobacter baumannii.
The subject of test [3] is A. baumannii ATCC 17978. Put plainly: Checkerboard assay. In kind it is cell-based, Acinetobacter baumannii. To be noted: for MIC alone, Antibiotic: A. baumannii ATCC 17978.
The subject of test [4] is DHA10 (CRAB). Put plainly: Checkerboard assay. Type of test: cell-based, Acinetobacter baumannii. To be noted: for MIC in combination, Antibiotic: in combination with AIG-R5.

As to magainin 2, the degraded pre-formed biofilms in test [1] is listed as 33.3%.
Turning to `C[C@@H](O)[C@H]1C(=O)N2C(C(=O)O)=C(SCCN=CN)C[C@H]12` [Imipenem], the Antibiotic resistance profile result is recorded as “S” in test [2] (strain 17978); “R” in test [2] (strain Ci 3); “R” in test [2] (strain Ci 6); “R” in test [2] (strain Ci 7); “R” in test [2] (strain DHA 8); “R” in test [2] (strain DHA 10). Besides, the Antibiotic resistance profile entry in test [2] (strain P-1119), in test [2] (strain P-1131), in test [2] (strain P-1139), in test [2] (strain P-1169) and in test [2] (strain P-1182) was “R” in each case. Besides, the “MIC alone, Antibiotic” value in test [3] is 2 µg/mL. Further, the “MIC in combination, Antibiotic” value in test [3] (in combination with AIG-R1), in test [3] (in combination with AIG-R4) and in test [3] (in combination with AIG-R5) was 1 µg/mL in each case.
On to `NCC[C@H](O)C(=O)N[C@@H]1C[C@H](N)[C@@H](O[C@H]2O[C@H](CN)[C@@H](O)[C@H](O)[C@H]2O)[C@H](O)[C@H]1O[C@H]1O[C@H](CO)[C@@H](O)[C@H](N)[C@H]1O` [Amikacin], for which the “MIC in combination, Antibiotic” value came to 256 µg/mL in test [4], 0.5 µg/mL in test [3] (in combination with AIG-R1), 1 µg/mL in test [3] (in combination with AIG-R4) and 0.5 µg/mL in test [3] (in combination with AIG-R5). The “MIC alone, Antibiotic” value in test [3] was found to be 2 µg/mL.
As to `C[C@@H](O)[C@H]1C(=O)N2C(C(=O)O)=C(S[C@@H]3CN[C@H](C(=O)N(C)C)C3)[C@H](C)[C@H]12` [Meropenem], the Antibiotic resistance profile entry in test [2] (strain 17978) is listed as “S”; in test [2] (strain Ci 3), “R”; in test [2] (strain Ci 6), “R”; in test [2] (strain Ci 7), “R”; in test [2] (strain DHA 8), “R”; in test [2] (strain DHA 10), “R”. The Antibiotic resistance profile entry in test [2] (strain P-1119), in test [2] (strain P-1131), in test [2] (strain P-1139), in test [2] (strain P-1169) and in test [2] (strain P-1182) was “R” throughout.
Consider `CC[C@H](C)CCCCC(=O)N[C@@H](CCN)C(=O)N[C@H](C(=O)N[C@@H](CCN)C(=O)N[C@H]1CCNC(=O)[C@H]([C@@H](C)O)NC(=O)[C@H](CCN)NC(=O)[C@H](CCN)NC(=O)[C@H](CC(C)C)NC(=O)[C@@H](CC(C)C)NC(=O)[C@H](CCN)NC1=O)[C@@H](C)O` [Colistin] (X1-[Dab]T[Dab][Dab][Dab][dL]L[Dab][Dab]T; lactam 4-C (inferred); N-terminus assumed), for which the Antibiotic resistance profile result in test [2] (strain 17978) was “S”; in test [2] (strain Ci 3) it was “R”; in test [2] (strain Ci 6), “R”; in test [2] (strain Ci 7), “R”; in test [2] (strain DHA 8), “R”; in test [2] (strain DHA 10) it was “R”. For the same molecule, the Antibiotic resistance profile entry in test [2] (strain P-1119), in test [2] (strain P-1131), in test [2] (strain P-1139), in test [2] (strain P-1169) and in test [2] (strain P-1182) was “R” throughout. The “MIC alone, Antibiotic” value in test [3] came out at 1 µg/mL. In addition, the “MIC in combination, Antibiotic” value in test [3] (in combination with AIG-R1) was 0.25 µg/mL; in test [3] (in combination with AIG-R4), 0.25 µg/mL; in test [3] (in combination with AIG-R5), 0.5 µg/mL.
On to `CO[C@H]1/C=C/O[C@@]2(C)Oc3c(C)c(O)c4c(O)c(cc(O)c4c3C2=O)NC(=O)/C(C)=C\C=C\[C@H](C)[C@H](O)[C@@H](C)[C@@H](O)[C@@H](C)[C@H](OC(C)=O)[C@@H]1C` [Rifamycin], for which, in test [3], the “MIC alone, Antibiotic” value was found to be 4 µg/mL. The “MIC in combination, Antibiotic” value in test [3] (in combination with AIG-R1), in test [3] (in combination with AIG-R4) and in test [3] (in combination with AIG-R5) was 2 µg/mL each time.
`NC[C@H]1O[C@H](O[C@H]2[C@H](O)[C@@H](O[C@H]3O[C@H](CO)[C@@H](O)[C@H](N)[C@H]3O)[C@H](N)C[C@@H]2N)[C@H](N)C[C@@H]1O` [Tobramycin]: the “MIC alone, Antibiotic” value in test [4] amounted to 512 µg/mL; in test [3], 2 µg/mL. Moreover, the “MIC in combination, Antibiotic” value in test [4] was 128 µg/mL; in test [3] (in combination with AIG-R1), 1 µg/mL; in test [3] (in combination with AIG-R4), 1 µg/mL; in test [3] (in combination with AIG-R5), 0.5 µg/mL.
As to `NC[C@H]1O[C@H](O[C@H]2[C@H](O)[C@@H](O[C@H]3O[C@H](CO)[C@@H](O)[C@H](N)[C@H]3O)[C@H](N)C[C@@H]2N)[C@H](O)[C@@H](O)[C@@H]1O.O=S(=O)(O)O` [Kanamycin sulphate], the “MIC alone, Antibiotic” value in test [3] worked out at 4 µg/mL. In addition, the results for the “MIC in combination, Antibiotic” value in test [3] (in combination with AIG-R1), in test [3] (in combination with AIG-R4) and in test [3] (in combination with AIG-R5) were 2 µg/mL, 2 µg/mL and 1 µg/mL, respectively.
